{"source": "patent US20170224647A1", "about": "“NEW MDR1 INHIBITORS FOR OVERCOMING MULTIDRUG RESISTANCE” (UNIVERSITA' DEGLI STUDI DI PARMA, priority 2014, published 2017)", "key": {"ABCG2": {"molecular_target": "T1, ABCG2 (Homo sapiens, UniProt Q9UNQ0)", "T1 construct": "a model of human lung adenocarcinoma (H460) over-expressing such receptor; endogenous in cells; host or cells: H460 (human lung carcinoma)", "T1 sequence (Q9UNQ0 1-655)": "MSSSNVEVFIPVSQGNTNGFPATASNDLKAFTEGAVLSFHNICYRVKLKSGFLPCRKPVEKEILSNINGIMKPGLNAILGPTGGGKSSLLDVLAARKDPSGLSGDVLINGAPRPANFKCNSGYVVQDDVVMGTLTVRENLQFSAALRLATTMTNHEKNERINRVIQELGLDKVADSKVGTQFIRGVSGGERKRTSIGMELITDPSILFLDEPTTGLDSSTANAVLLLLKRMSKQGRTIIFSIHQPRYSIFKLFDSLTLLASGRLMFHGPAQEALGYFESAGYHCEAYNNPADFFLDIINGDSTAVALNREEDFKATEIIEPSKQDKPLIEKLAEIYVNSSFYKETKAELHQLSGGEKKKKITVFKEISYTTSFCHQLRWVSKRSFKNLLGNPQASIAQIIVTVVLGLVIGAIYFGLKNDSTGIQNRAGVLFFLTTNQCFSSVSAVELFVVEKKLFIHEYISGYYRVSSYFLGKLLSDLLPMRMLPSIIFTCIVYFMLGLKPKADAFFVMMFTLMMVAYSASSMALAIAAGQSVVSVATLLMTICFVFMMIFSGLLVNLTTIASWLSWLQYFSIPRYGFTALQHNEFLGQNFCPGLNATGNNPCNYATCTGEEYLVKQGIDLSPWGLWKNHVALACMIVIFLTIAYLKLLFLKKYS", "assay": "ABCG2-mediated outflow of fluorescent Hoechst in H460 cells", "assay_type": "cell-based", "conditions": "H460 cells over-expressing ABCG2; FIG. 4", "procedure": "(§1) Once the growth medium has been removed from the cells, a PBS washing at 37° C. is carried out, and RPMI without phenol red containing antibiotics is added, 5% FCS, 10 mM HEPES and 2mM Glutamine in the presence/absence of Calcein AM or 1 μM Hoechst and possible inhibitors are added. At the end of the loading, two washings with cold PBS are carried out, RPMI without Calcein AM or Hoechst is added, and samples are read by using the fluorescence plate reader (Enspire, Perkin Elmer; A of excitation: 360 nm; λ of emission: 465 nm). The value provided by the instrument is proportional to the intracellular concentration of Calcein AM and Hoechst. Finally, the cells are treated with 5% TCA, followed by 0.5 N NaOH to solubilize the cells. The protein content is determined by the Bradford method, and it is used for normalizing the uptake values of Calcein AM and Hoechst. The accumulation of Calcein or Hoechst is therefore expressed as the fluorescence intensity/mg proteins."}, "MDR1 [1]": {"molecular_target": "T2, MDR1 (Homo sapiens, UniProt P08183)", "T2 construct": "lung squamous-cell carcinoma (SKMES) expressing high levels of MDR1 on the plasma membrane; endogenous in cells; host or cells: SKMES (lung squamous-cell carcinoma)", "T2 sequence (P08183 whole entry)": "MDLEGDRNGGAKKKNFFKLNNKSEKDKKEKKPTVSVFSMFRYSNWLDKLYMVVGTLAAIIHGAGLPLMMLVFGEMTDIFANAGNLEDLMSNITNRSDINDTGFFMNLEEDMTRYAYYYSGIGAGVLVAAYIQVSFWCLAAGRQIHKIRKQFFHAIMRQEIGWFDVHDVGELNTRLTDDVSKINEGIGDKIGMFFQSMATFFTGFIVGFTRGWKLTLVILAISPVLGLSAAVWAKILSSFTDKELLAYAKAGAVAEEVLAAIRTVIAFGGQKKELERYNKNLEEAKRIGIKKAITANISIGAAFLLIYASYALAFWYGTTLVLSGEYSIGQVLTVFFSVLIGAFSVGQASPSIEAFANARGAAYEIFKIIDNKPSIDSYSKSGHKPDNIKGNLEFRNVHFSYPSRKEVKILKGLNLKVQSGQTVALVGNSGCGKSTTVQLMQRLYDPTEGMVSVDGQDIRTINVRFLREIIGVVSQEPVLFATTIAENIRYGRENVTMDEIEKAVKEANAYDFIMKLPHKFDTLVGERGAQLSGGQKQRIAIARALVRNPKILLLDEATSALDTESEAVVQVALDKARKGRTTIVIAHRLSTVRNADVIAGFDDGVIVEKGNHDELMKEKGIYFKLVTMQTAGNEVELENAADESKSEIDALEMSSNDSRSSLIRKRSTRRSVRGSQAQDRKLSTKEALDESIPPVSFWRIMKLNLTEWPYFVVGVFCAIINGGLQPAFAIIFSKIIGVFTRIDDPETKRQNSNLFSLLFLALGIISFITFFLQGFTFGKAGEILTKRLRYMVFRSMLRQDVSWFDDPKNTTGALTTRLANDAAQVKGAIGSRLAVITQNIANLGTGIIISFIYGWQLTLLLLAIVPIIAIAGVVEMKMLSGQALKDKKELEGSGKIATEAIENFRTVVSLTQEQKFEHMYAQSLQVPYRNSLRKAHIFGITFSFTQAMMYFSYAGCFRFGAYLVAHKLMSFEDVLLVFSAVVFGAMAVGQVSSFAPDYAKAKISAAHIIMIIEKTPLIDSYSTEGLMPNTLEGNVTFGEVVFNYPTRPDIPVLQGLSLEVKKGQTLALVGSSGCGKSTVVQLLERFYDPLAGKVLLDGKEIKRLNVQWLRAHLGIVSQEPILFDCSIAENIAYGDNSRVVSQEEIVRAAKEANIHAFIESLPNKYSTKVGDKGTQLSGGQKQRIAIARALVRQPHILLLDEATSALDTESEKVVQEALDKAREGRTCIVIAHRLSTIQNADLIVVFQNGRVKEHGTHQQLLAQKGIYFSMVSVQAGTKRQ", "assay": "MDR1-mediated accumulation of fluorescent calcein in A549 cells", "assay_type": "cell-based", "conditions": "A549 human lung adenocarcinoma cells; FIG. 3A", "procedure": "(§2) The lung carcinoma cell lines A549 and SKMES are grown in RPMI, supplemented with 10% fetal calf serum (FCS), 2 mM glutamine (Gln), and antibiotics (Penicillin 100 UI/ml and Streptomycin 100 μg/ml). Cells are kept in a thermostat at a temperature of 37° C., in air saturated with water vapor, enriched with 5% CO2.\nas §1"}, "tumoral cell": {"system": "tumoral cell", "assay": "Intracellular concentration of doxorubicin by LC-MS/MS", "assay_type": "cell-based", "conditions": "after AIF1 treatment compared to untreated cells; FIG. 8", "procedure": "The intracellular content of Doxorubicin and AIF-1 may be determined by liquid chromatography-tandem mass spectrometry (LC-MS/MS) of samples extracted with absolute ethanol. In particular, after the treatment with the drugs, the culture medium is removed, and 3 washings of the cell monolayer with PBS are carried out. Then, the cells are incubated for ten minutes at room temperature with absolute ethanol, which is then analyzed by a LC-MS/MS technique. Values were normalized for the protein content assessed after solubilization of the cell monolayer with 0.5N NaOH and are expressed as pmoles/mg proteins.\nDoxorubicin and AIF-1 concentrations in the samples of cell extracts were determined by liquid chromatography-tandem mass spectrometry (LCMS/MS) by using a mass spectrometer.\nThe samples extracted in ethanol were filtered on a 0.2 μm cellulose filter and analyzed by liquid chromatography-tandem mass spectrometry (LC-MS/MS). […]\nThe full scan mass spectra were recorded in the 250-900 m/z range, using a 0.1 stepsize and 1 s scan time in the positive ion mode for doxorubicin and atenolol (ATN, used as the internal standard) and in the negative ion mode for AIF1. […]"}, "SKMES cells": {"system": "SKMES cells", "assay": "Intracellular doxorubicin by confocal microscope", "assay_type": "cell-based, human", "procedure": "SKMES cells were seeded on cover glasses and incubated with culture medium in a thermostat for 24 h. […]\nImages were taken by using a confocal microscope (LSM 510 Meta scan integrated with a reversed microscope Carl Zeiss, Jena Germany), with a 43×/1.30 oil immersion lens.\nFluorescence of doxorubicin was excited with a 488 nm argon laser and its emission was collected by a 530 nm filter. During the analysis of the various samples, the confocal settings (excitation, laser power, detection range, and pinhole size) were kept unaltered."}, "ABCG1": {"molecular_target": "T3, ABCG1 (Homo sapiens, UniProt P45844)", "T3 construct": "expressed in transfected cells; host or cells: CHO-L3 (derived from hamster ovary CHO-K1, which serves as control)", "assay": "ABCG1-mediated cholesterol outflow", "assay_type": "cell-based, hamster", "conditions": "CHO-L3 over-expressing ABCG1 vs CHO-K1, HDL acceptor; FIG. 5A", "procedure": "In order to assess the ABCG1-mediated outflow, control hamster ovary cells CHO-K1 and CHO-L3 over-expressing the ABCG1 protein in Ham's medium F12 with 10% FBS were seeded in parallel in sterile 24-well plates. After 24 h, both cell lines were labeled with 10% FBS medium containing 1 μCi/ml [3H]-cholesterol. At the end of the labelling period (24 h), both cell lines were washed with PBS and equilibrated during 90 minutes with medium supplemented with 0.2% albumin. At the end of the equilibration, the cells were treated in the absence or presence of our compound AIF1 during 2 hours, and incubated for the next 6 hours e with the cholesterol acceptors, HDLs, at a concentration of 12.5 μg/ml. The quantification of the tritiated cholesterol secreted by the cells in the medium was determined as described in the previous paragraph. In particular, the contribution of the ABCG1 transporter to the cholesterol outflow was calculated as the difference between the outflow percentages obtained from the cell line CHO-L3 over-expressing ABCG1 and those obtained from the control cell line CHO-K1. Each experimental condition was carried out in triplicates, and data was expressed as mean±standard deviation."}, "MDR1 [2]": {"molecular_target": "T2, MDR1", "assay": "MDR1-mediated accumulation of fluorescent calcein in SKMES cells", "assay_type": "cell-based", "conditions": "SKMES lung squamous-cell carcinoma cells; compared with PSC833; FIG. 3B", "procedure": "as §2, §1"}, "ABCA1": {"molecular_target": "T4, ABCA1 (Mus musculus, UniProt P41233)", "T4 construct": "the expression of the ABCA1 protein on the plasma membrane was stimulated by adding 22-OH cholesterol and 9-cis-retinoic acid; endogenous in cells; host or cells: murine peritoneal macrophages (primary)", "T4 sequence (P41233 whole entry)": "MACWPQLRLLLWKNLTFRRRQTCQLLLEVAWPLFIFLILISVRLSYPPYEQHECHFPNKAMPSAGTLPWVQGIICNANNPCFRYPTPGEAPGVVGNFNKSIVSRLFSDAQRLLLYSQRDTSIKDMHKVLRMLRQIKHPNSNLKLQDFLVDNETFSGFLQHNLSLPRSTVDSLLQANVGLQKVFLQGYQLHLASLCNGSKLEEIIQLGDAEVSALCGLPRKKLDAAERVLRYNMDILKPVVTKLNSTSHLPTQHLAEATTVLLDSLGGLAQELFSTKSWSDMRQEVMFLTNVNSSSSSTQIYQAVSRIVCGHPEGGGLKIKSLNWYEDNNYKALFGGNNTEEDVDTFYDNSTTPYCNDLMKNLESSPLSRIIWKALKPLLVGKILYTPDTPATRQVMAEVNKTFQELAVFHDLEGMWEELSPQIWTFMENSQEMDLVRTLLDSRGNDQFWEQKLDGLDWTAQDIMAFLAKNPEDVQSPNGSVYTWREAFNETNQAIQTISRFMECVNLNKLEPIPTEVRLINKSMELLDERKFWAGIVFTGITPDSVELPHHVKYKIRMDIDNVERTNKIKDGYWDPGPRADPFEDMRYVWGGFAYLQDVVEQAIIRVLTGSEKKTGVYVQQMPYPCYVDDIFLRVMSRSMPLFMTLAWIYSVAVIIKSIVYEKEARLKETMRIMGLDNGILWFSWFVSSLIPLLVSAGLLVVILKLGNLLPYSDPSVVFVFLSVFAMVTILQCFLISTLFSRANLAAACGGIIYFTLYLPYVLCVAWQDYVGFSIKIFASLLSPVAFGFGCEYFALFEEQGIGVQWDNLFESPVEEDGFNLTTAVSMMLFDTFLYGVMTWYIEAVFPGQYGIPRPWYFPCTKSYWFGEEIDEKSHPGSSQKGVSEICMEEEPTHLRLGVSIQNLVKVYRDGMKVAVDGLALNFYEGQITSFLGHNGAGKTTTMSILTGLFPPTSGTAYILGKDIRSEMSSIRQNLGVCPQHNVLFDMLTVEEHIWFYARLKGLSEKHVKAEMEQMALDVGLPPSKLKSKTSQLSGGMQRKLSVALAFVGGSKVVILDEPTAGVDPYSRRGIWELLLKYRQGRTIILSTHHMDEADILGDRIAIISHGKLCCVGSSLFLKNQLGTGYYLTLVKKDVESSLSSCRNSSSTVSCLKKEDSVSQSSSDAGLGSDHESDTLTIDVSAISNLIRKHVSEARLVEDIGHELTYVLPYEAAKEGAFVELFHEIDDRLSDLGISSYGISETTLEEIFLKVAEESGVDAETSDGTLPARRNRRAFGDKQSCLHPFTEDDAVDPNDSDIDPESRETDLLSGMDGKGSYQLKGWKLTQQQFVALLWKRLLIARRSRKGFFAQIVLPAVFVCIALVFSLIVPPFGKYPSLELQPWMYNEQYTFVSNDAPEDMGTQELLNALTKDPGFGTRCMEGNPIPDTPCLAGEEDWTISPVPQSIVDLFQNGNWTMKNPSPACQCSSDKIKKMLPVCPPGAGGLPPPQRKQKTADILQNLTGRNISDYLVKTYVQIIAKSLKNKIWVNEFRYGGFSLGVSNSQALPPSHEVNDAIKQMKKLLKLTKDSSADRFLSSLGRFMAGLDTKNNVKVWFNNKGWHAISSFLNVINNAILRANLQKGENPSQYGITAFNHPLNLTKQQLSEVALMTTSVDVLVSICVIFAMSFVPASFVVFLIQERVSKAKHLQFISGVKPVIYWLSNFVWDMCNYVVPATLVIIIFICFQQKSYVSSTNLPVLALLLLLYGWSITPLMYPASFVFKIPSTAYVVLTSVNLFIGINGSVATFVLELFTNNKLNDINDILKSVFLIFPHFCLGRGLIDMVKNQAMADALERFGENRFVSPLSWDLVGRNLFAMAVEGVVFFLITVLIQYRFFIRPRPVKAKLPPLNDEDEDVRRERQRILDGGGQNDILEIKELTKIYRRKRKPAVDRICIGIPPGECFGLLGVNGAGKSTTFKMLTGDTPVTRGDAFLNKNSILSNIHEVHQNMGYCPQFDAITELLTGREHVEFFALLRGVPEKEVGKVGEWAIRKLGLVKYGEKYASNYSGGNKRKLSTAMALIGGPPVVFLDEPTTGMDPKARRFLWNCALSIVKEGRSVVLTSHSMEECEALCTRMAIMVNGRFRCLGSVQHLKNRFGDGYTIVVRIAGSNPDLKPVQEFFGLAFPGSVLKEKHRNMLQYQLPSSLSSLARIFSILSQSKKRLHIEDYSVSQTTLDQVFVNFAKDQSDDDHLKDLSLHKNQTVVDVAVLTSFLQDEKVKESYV", "assay": "ABCA1-mediated cholesterol outflow", "assay_type": "cell-based", "conditions": "murine peritoneal macrophages, apolipoprotein A-I acceptor; FIG. 5B", "procedure": "Murine peritoneal macrophages were seeded in da 24-well plates, each containing 10^6 cell/well in 10% RPMI of fetal bovine serum (FBS). After 24 h, following a PBS washing, the cells were incubated with radiolabeled medium containing [3H]-cholesterol at a concentration of 2 μCi/ml in a medium supplemented with FBS 2% in the presence of the inhibitor of the esterifying enzyme ACAT (SAH58035) at a final concentration of 2 μg/ml in order to maintain all the intracellular cholesterol in the free form and the ABCA1 substrate in the outflow process. At the completion of the 24-hour staining, after the PBS washing, the cells were incubated with an equilibration medium composed of RPMI, 0.2% albumin, and the ACAT inhibitor. […] The filtered medium was collected and transferred into a vial, together with the scintillation liquid for the subsequent reading at the β-counter for the measurement of the radioactivity present in the cultural medium, which is an index of the free cholesterol excreted by the cells. The outflow percentage is calculated on the total radioactivity which is present in the cell by the following formula: % outflow=(average cpm/total cpm of the monolayer)×100. Each experimental condition was carried out in triplicates, and data was expressed as mean±standard deviation."}}, "data": [{"smiles": "CC(C)(Sc1cc(C(C)(C)C)c(OC(=O)CCC(=O)O)c(C(C)(C)C)c1)Sc1cc(C(C)(C)C)c(OC(=O)CCC(=O)O)c(C(C)(C)C)c1", "note": "[AIF1]", "values": [{"measurement": "accumulation/extrusion of fluorescent Hoechst (ABCG2 substrate)", "setting": "ABCG2", "result": "did not show any effect"}, {"measurement": "intracellular concentration of calcein (MDR1-mediated cell outflow of fluorescent calcein)", "setting": "MDR1 [1]", "result": "significantly and dose-dependent increases"}, {"measurement": "concentration of intracellular doxorubicin", "setting": "tumoral cell", "result": "significantly higher"}, {"measurement": "intracellular fluorescent signal of doxorubicin", "setting": "SKMES cells; after 60 and 90 minutes of doxorubicin in the presence of AIF1, FIGS. 7B, 7C", "result": "remains almost unaltered"}, {"measurement": "intracellular fluorescent signal of doxorubicin", "setting": "SKMES cells; after 30 minutes doxorubicin, vs cells not treated with the compound, FIG. 7A", "result": "considerably increased"}, {"measurement": "outflow of cholesterol mediated by ABCG1", "setting": "ABCG1", "result": "does not show any effect"}, {"measurement": "effect on MDR1-mediated accumulation of fluorescent calcein", "setting": "MDR1 [2]", "result": "highly effective"}, {"measurement": "outflow of cholesterol mediated by ABCA1", "setting": "ABCA1", "result": "does not show any effect"}]}]}
